Experimental data reported in patent US20240300968A1, “6-SUBSTITUTED NAPHTHALENE-1,3-DISULFONIC ACID DERIVATIVES AS MODULATORS OF THE EXTRACELLULAR NICOTINAMIDE PHOSPHORIBOSYL TRANSFERASE (ENAMPT) FOR THE TREATMENT OF E.G. DIABETES” (The University of Manchester, priority 2021, published 2024).
Where two headings read alike, the source gives them in different places.

Columns and labels:
NAMPT [1] = target: T1, NAMPT (Homo sapiens (Human), UniProt P43490); experiment: Tm shift assay (thermal melting, SYPRO Orange); format: binding; details: read-out: NAMPT Tm shift
THP-1 cells = experiment: THP-1 WST-1 assay; format: cell-based; details: Homo sapiens, 1 μM test compound, 48 hrs, average of three replicates
Protocol: THP-1 cells were plated at […] (400,000 cells per mL) in a final volume of 150 μL media (RPMI-1640 containing 10% v/v FBS) containing 1 μM test compound. Samples were incubated for 48 hrs at which point 15 μL WST-1 solution (Sigma-Aldrich) was added. Light was excluded and the samples incubated for a further 2 hrs. Absorbance of wells were read at 450 nm and 630 nm using a Hidex Sense plate reader. Metabolic inhibition was determined by the absorbance at 450 nm and transformed to % control using Excel. Data reported is an average of three replicates.

NAMPT [2] = target: T1, NAMPT; experiment: Native mass spectrometry of NAMPT incubated with compound; format: binding; details: NAMPT 5 μmol/l with compound 5 μmol/l, 12 hours; m/z 6125-6500 region
[3] = compound 100 μM, shift vs protein without ligand, mean of 3 independent repeats

T1 sequence (P43490 whole entry, species assumed): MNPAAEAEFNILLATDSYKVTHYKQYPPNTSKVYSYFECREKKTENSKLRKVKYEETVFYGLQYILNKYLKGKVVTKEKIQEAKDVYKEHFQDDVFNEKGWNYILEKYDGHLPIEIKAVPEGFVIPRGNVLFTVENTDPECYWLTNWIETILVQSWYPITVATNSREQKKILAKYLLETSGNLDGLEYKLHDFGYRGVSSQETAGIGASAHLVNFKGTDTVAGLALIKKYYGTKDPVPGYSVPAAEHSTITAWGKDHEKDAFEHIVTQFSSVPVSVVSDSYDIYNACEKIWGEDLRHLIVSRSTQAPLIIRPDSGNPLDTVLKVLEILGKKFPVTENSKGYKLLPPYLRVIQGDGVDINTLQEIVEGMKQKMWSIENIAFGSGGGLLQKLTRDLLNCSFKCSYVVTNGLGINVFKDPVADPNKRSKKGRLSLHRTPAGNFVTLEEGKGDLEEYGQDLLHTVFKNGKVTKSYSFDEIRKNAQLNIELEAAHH

Compound | ΔTm at 100 µM (NAMPT [1]; [3]) | inhibition at 1 µM (THP-1 cells) | ΔTm at 100 µM (NAMPT [1]) | complex between NAMPT and compound in native mass spectrum (NAMPT [2])
O=C(NCc1ccc(F)c(-c2ccc3cc(S(=O)(=O)O)cc(S(=O)(=O)O)c3c2)c1)Nc1ccc(S(=O)(=O)N2CCCCC2)cc1 [Example 1, 6-(2-fluoro-5-((3-(4-(piperidin-1-ylsulfonyl)phenyl)ureido)methyl)phenyl)-4-(trioxidaneylthio)naphthalene-2-sulfonic acid] | 10.3 °C | < 0% | – | –
O=C(/C=C/c1ccc(F)c(-c2ccc3cc(S(=O)(=O)O)cc(S(=O)(=O)O)c3c2)c1)NCCCCC1CCN(C(=O)c2ccccc2)CC1 [Example 2, (E)-6-(5-(3-((4-(1-benzoylpiperidin-4-yl)butyl)amino)-3-oxoprop-1-en-1-yl)-2-fluorophenyl)-4-(trioxidaneylthio)naphthalene-2-sulfonic acid] | 9.1 °C | 70.4% | – | –
O=C(NCc1ccc(F)c(-c2ccc3cc(S(=O)(=O)O)cc(S(=O)(=O)O)c3c2)c1)Nc1ccc(S(=O)(=O)c2ccccc2)cc1 [Example 3, 6-(2-fluoro-5-((3-(4-(phenylsulfonyl)phenyl)ureido)methyl)phenyl)-4-(trioxidaneylthio) naphthalene-2-sulfonic acid] | 12.2 °C | < 0% | – | –
O=S(=O)(O)c1cc(S(=O)(=O)O)c2cc(-c3cccc(-c4cn(CCCCCCOc5ccccc5-c5ccccc5)nn4)c3)ccc2c1 [Example 4] | – | < 0% | – | –
O=C(NCc1cccc(-c2ccc3cc(S(=O)(=O)O)cc(S(=O)(=O)O)c3c2)c1)Nc1ccc(S(=O)(=O)N2CCCCC2)cc1 [Example 5] | 10.8 °C | < 0% | – | –
O=C(NCc1cc(-c2ccc3cc(S(=O)(=O)O)cc(S(=O)(=O)O)c3c2)ccc1F)Nc1ccc(S(=O)(=O)N2CCCCC2)cc1 [Example 6, 6-(4-fluoro-3-((3-(4-(piperidin-1-ylsulfonyl)phenyl)ureido)methyl)phenyl)-4-(trioxidaneylthio) naphthalene-2-sulfonic acid] | 9.6 °C | 1% | – | –
COc1ccc(CNC(=O)Nc2ccc(S(=O)(=O)N3CCCCC3)cc2)cc1-c1ccc2cc(S(=O)(=O)O)cc(S(=O)(=O)O)c2c1 [Example 7] | 7.5 °C | < 0% | – | –
O=C(NCc1ccc(F)c(-c2ccc3cc(S(=O)(=O)O)cc(S(=O)(=O)O)c3c2)c1)Nc1ccc(S(=O)(=O)N2CC3CCC(C2)O3)cc1 [Example 8, 6-(5-((3-(4-((8-oxa-3-azabicyclo[3.2.1]octan-3-yl)sulfonyl)phenyl)ureido)methyl)-2-fluorophenyl)-4-(trioxidaneylthio)naphthalene-2-sulfonic acid] | 9.7 °C | < 0% | – | –
O=C(NCc1ccc(S(=O)(=O)N2CCCCC2)cc1)c1cc2cc(-c3ccc4cc(S(=O)(=O)O)cc(S(=O)(=O)O)c4c3)ccc2[nH]1 [Example 9] | 4.2 °C | < 0% | – | –
O=C(NC[C@@H]1CCOC1)c1ccc(NC(=O)N2Cc3ccc(-c4ccc5cc(S(=O)(=O)O)cc(SOOO)c5c4)cc3C2)cc1 [Example 10, (S)-6-(2-((4-(((Tetrahydrofuran-3-yl)methyl)carbamoyl)phenyl)carbamoyl)isoindolin-5-yl)-4-(trioxidaneylthio)naphthalene-2-sulfonic acid] | 20.5 °C | – | – | –
O=C(/C=C/c1cccnc1)NCCCCC1CCN(C(=O)c2ccccc2)CC1 [FK866, (E)-N-[4-(1-benzoylpiperidin-4-yl)butyl]-3-pyridin-3-ylprop-2-enamide, reference compound] | – | 79.6% | 2.6 °C | complex dissociates
